Activity calls are given as the source filed them. The calls are words filed in the database; no cut-off is given here. Where a SMILES comes first, the peptide text is derived from it.
Key:
[1] = tested on: Klebsiella pneumoniae; experiment: Synergistic antibacterial activity against Klebsiella pneumoniae ATCC BAA 1705 assessed as fractional inhibitory concentration index incubated for 24 hrs in presence of tetracycline by checkerboard assay; assay type: functional
[2] = tested on: Pseudomonas aeruginosa; experiment: Synergistic antibacterial activity against carbapenem resistant Pseudomonas aeruginosa ATCC BAA 1744 assessed as fractional inhibitory concentration index incubated for 24 hrs in presence of meropenem by checkerboard assay; assay type: functional
[3] = tested on: Staphylococcus aureus; experiment: Antibacterial activity against Staphylococcus aureus ATCC BAA -1556 assessed as levofloxacin MIC incubated for 24 hrs by microbroth dilution assay; assay type: functional
[4] = tested on: Staphylococcus aureus; experiment: Antibacterial activity against Staphylococcus aureus ATCC BAA -1556 assessed as tobramycin MIC incubated for 24 hrs by microbroth dilution assay; assay type: functional
[5] = tested on: Klebsiella pneumoniae; experiment: Antibacterial activity against Klebsiella pneumoniae ATCC BAA 1705 assessed as ciprofloxacin MIC incubated for 24 hrs by microbroth dilution assay; assay type: functional
[6] = tested on: Staphylococcus aureus; experiment: Bactericidal activity against methicillin resistant Staphylococcus aureus ATCC BAA 1556 assessed as reduction in bacterial viability at MIC measured after 2 hrs by Time kill assay; assay type: functional, organism-based
[7] = tested on: Klebsiella pneumoniae; experiment: Synergistic antibacterial activity against Klebsiella pneumoniae ATCC BAA 1705 assessed as fractional inhibitory concentration index incubated for 24 hrs in presence of tobramycin by checkerboard assay; assay type: functional
[8] = tested on: Staphylococcus aureus; experiment: Antibacterial activity against Staphylococcus aureus ATCC BAA -1556 assessed as tetracycline MIC incubated for 24 hrs by microbroth dilution assay; assay type: functional
[9] = tested on: HepaRG; experiment: Cytotoxicity against human HepaRG cells assessed as assessed as reduction in cell viability at 50 to 150 ug/ml incubated for 24 hrs by microplate reader analysis relative to control; assay type: toxicity, cell-based; details: at 50 to 150 µg/mL, dose 50-150 µg/ml
[10] = tested on: Escherichia coli; experiment: Synergistic antibacterial activity against Escherichia coli ATCC 25922 assessed as fractional inhibitory concentration index incubated for 24 hrs in presence of tetracycline by checkerboard assay; assay type: functional
[11] = tested on: Staphylococcus aureus; experiment: Bactericidal activity against methicillin resistant Staphylococcus aureus ATCC BAA 1556 assessed as reduction in bacterial viability at MIC measured after 4 hrs by Time kill assay; assay type: functional, organism-based
[12] = tested on: Pseudomonas aeruginosa; experiment: Synergistic antibacterial activity against Pseudomonas aeruginosa ATCC 27883 assessed as fractional inhibitory concentration index incubated for 24 hrs in presence of polymyxin B by checkerboard assay; assay type: functional
[13] = tested on: Escherichia coli; experiment: Antibacterial activity against Escherichia coli ATCC 25922 assessed as tetracycline MIC incubated for 24 hrs by microbroth dilution assay; assay type: functional
[14] = tested on: Pseudomonas aeruginosa; experiment: Antibacterial activity against carbapenem resistant Pseudomonas aeruginosa ATCC BAA 1744 assessed as reduction in microbial growth incubated for 24 hrs by microbroth dilution method; assay type: functional
[15] = tested on: Pseudomonas aeruginosa; experiment: Antibacterial activity against Pseudomonas aeruginosa ATCC 27883 assessed as vancomycin MIC incubated for 24 hrs by microbroth dilution assay; assay type: functional
[16] = tested on: Klebsiella pneumoniae; experiment: Antibacterial activity against Klebsiella pneumoniae ATCC BAA 1705 assessed as vancomycin MIC incubated for 24 hrs by microbroth dilution assay; assay type: functional
[17] = tested on: Pseudomonas aeruginosa; experiment: Antibacterial activity against Pseudomonas aeruginosa ATCC 27883 assessed as polymyxin B MIC incubated for 24 hrs by microbroth dilution assay; assay type: functional
[18] = tested on: Escherichia coli; experiment: Synergistic antibacterial activity against Escherichia coli ATCC 25922 assessed as fractional inhibitory concentration index incubated for 24 hrs in presence of polymyxin B by checkerboard assay; assay type: functional
[19] = tested on: Escherichia coli; experiment: Antibacterial activity against Escherichia coli ATCC 25922 assessed as kanamycin MIC incubated for 24 hrs by microbroth dilution assay; assay type: functional
[20] = tested on: Staphylococcus aureus; experiment: Antibacterial activity against Methicillin resistant Staphylococcus aureus ATCC BAA -1556 assessed as reduction in microbial growth incubated for 24 hrs by microbroth dilution method; assay type: functional
[21] = tested on: Escherichia coli; experiment: Synergistic antibacterial activity against Escherichia coli ATCC 25922 assessed as fractional inhibitory concentration index incubated for 24 hrs in presence of ciprofloxacin by checkerboard assay; assay type: functional
[22] = tested on: Klebsiella pneumoniae; experiment: Synergistic antibacterial activity against Klebsiella pneumoniae ATCC 13883 assessed as fractional inhibitory concentration index incubated for 24 hrs in presence of meropenem by checkerboard assay; assay type: functional
[23] = tested on: Pseudomonas aeruginosa; experiment: Synergistic antibacterial activity against Pseudomonas aeruginosa ATCC 27883 assessed as fractional inhibitory concentration index incubated for 24 hrs in presence of tetracycline by checkerboard assay; assay type: functional
[24] = tested on: Klebsiella pneumoniae; experiment: Antibacterial activity against Klebsiella pneumoniae ATCC BAA 1705 assessed as tetracycline MIC incubated for 24 hrs by microbroth dilution assay; assay type: functional
[25] = tested on: Pseudomonas aeruginosa; experiment: Synergistic antibacterial activity against Pseudomonas aeruginosa ATCC 27883 assessed as fractional inhibitory concentration index incubated for 24 hrs in presence of levofloxacin by checkerboard assay; assay type: functional
[26] = tested on: Escherichia coli; experiment: Synergistic antibacterial activity against Escherichia coli ATCC 25922 assessed as fractional inhibitory concentration index incubated for 24 hrs in presence of vancomycin by checkerboard assay; assay type: functional
[27] = tested on: Pseudomonas aeruginosa; experiment: Antibacterial activity against Pseudomonas aeruginosa ATCC 27883 assessed as reduction in microbial growth incubated for 24 hrs by microbroth dilution method; assay type: functional
[28] = tested on: Klebsiella pneumoniae; experiment: Synergistic antibacterial activity against imipenem resistant Klebsiella pneumoniae ATCC BAA 1705 assessed as fractional inhibitory concentration index incubated for 24 hrs in presence of meropenem; assay type: functional
[29] = tested on: Escherichia coli; experiment: Synergistic antibacterial activity against Escherichia coli ATCC 25922 assessed as fractional inhibitory concentration index incubated for 24 hrs in presence of levofloxacin by checkerboard assay; assay type: functional
[30] = tested on: Pseudomonas aeruginosa; experiment: Synergistic antibacterial activity against Pseudomonas aeruginosa ATCC 27883 assessed as fractional inhibitory concentration index incubated for 24 hrs in presence of tobramycin by checkerboard assay; assay type: functional
[31] = tested on: Klebsiella pneumoniae; experiment: Antibacterial activity against Klebsiella pneumoniae ATCC BAA 1705 assessed as tobramycin MIC incubated for 24 hrs by microbroth dilution assay; assay type: functional
[32] = tested on: Pseudomonas aeruginosa; experiment: Antibacterial activity against Pseudomonas aeruginosa ATCC 27883 assessed as ciprofloxacin MIC incubated for 24 hrs by microbroth dilution assay; assay type: functional
[33] = tested on: Klebsiella pneumoniae; experiment: Bactericidal activity against Klebsiella pneumoniae ATCC BAA 1705 assessed as decrease in bacterial growth at MIC measured after 18 hrs by Time kill assay; assay type: functional, organism-based
[34] = tested on: Escherichia coli; experiment: Synergistic antibacterial activity against carbapenem and NDM-1 positive resistant Escherichia coli ATCC BAA 2452 assessed as fractional inhibitory concentration index incubated for 24 hrs in presence of meropenem by checkerboard assay; assay type: functional
[35] = tested on: Klebsiella pneumoniae; experiment: Antibacterial activity against Klebsiella pneumoniae ATCC 13883 assessed as reduction in microbial growth incubated for 24 hrs by microbroth dilution method; assay type: functional
[36] = tested on: Escherichia coli; experiment: Antibacterial activity against carbapenem and NDM-1 positive resistant Escherichia coli ATCC BAA 2452 assessed as reduction in microbial growth incubated for 24 hrs by microbroth dilution method; assay type: functional
[37] = tested on: Staphylococcus aureus; experiment: Bactericidal activity against methicillin resistant Staphylococcus aureus ATCC BAA 1556 assessed as reduction in colony formation at MIC measured at 8 to 12 hrs by Time kill assay; assay type: functional, organism-based; details: time 8-12 hrs
[38] = tested on: Pseudomonas aeruginosa; experiment: Antibacterial activity against Pseudomonas aeruginosa ATCC 27883 assessed as tobramycin MIC incubated for 24 hrs by microbroth dilution assay; assay type: functional
[39] = tested on: Pseudomonas aeruginosa; experiment: Synergistic antibacterial activity against Pseudomonas aeruginosa ATCC 27883 assessed as fractional inhibitory concentration index incubated for 24 hrs in presence of vancomycin by checkerboard assay; assay type: functional
[40] = tested on: Staphylococcus aureus; experiment: Synergistic antibacterial activity against methicillin resistant Staphylococcus aureus ATCC BAA -1556 assessed as fractional inhibitory concentration index incubated for 24 hrs in presence of clindamycin by checkerboard assay; assay type: functional

N=C(N)NCCC[C@@H]1NC(=O)[C@H](CCCNC(=N)N)NC(=O)[C@H](CCCNC(=N)N)NC(=O)[C@H](CCCNC(=N)N)NC(=O)[C@H](Cc2c[nH]c3ccccc23)NC(=O)[C@H](Cc2c[nH]c3ccccc23)NC(=O)[C@H](Cc2c[nH]c3ccccc23)NC(=O)[C@H](Cc2c[nH]c3ccccc23)NC(=O)[C@H](CCCCN)NC(=O)[C@H](CCCNC(=N)N)NC1=O (cyclo(KWWWWRRRRR))
fractional inhibitory concentration index (FICI) [1]: 0.3125 | fractional inhibitory concentration index (FICI) [2]: 0.156 | MIC [3]: 1 µg/mL | MIC [4]: 0.0625 µg/mL | MIC [5]: 16 µg/mL | Activity [6]: Active | fractional inhibitory concentration index (FICI) [7]: 0.375 | MIC [8]: 0.0625 µg/mL | Activity [9]: 71% | fractional inhibitory concentration index (FICI) [10]: 0.5 | Activity [11]: Active | fractional inhibitory concentration index (FICI) [12]: 0.375 | MIC [13]: 2 µg/mL | MIC [14]: 16 µg/mL | MIC [15]: 8 µg/mL | MIC [16]: 16 µg/mL | MIC [17]: 0.125 µg/mL | fractional inhibitory concentration index (FICI) [18]: 0.3125 | MIC [19]: 4 µg/mL | MIC [20]: 4 µg/mL | fractional inhibitory concentration index (FICI) [21]: 0.625 | fractional inhibitory concentration index (FICI) [22]: 0.625 | fractional inhibitory concentration index (FICI) [23]: 0.375 | MIC [24]: 1 µg/mL | fractional inhibitory concentration index (FICI) [25]: 0.375 | fractional inhibitory concentration index (FICI) [26]: 0.5625 | MIC [27]: 16 µg/mL | fractional inhibitory concentration index (FICI) [28]: 0.75 | fractional inhibitory concentration index (FICI) [29]: 0.375 | fractional inhibitory concentration index (FICI) [30]: 0.5 | MIC [31]: 2 µg/mL | MIC [32]: 0.125 µg/mL | Activity [33]: Active | fractional inhibitory concentration index (FICI) [34]: 0.5 | MIC [35]: 16 µg/mL | MIC [36]: 16 µg/mL | Activity [37]: Active | MIC [38]: 0.125 µg/mL | fractional inhibitory concentration index (FICI) [39]: 0.531 | fractional inhibitory concentration index (FICI) [40]: 0.498

From ChEMBL document CHEMBL5154823, “Amphiphilic cyclic peptide [W4KR5]-Antibiotics combinations as broad-spectrum antimicrobial agents” (Eur J Med Chem, 2022)
